Laboratory results published in article PMC4872216, “Novel small molecule 11β-HSD1 inhibitor from the endophytic fungus Penicillium commune” (Scientific Reports, 2016).
Entries after “also recorded” stand apart in the source; their conditions may differ.

Columns and labels:
[1] = molecular target: T1, recombinant human 11β-HSD1 (Homo sapiens, UniProt P28845); assay: 11β-HSD1 enzyme inhibition assay (cortisone to cortisol, HPLC-MS/MS); assay type: biochemical; conditions: cortisone 50 μM, NADPH 1 mM, 37 °C, 30 min, read-out: IC50 (inhibitory activities against 11β-HSD1)
T1 construct: The gene encoding 11β-HSD1 (Genebank: NC_018912.2) was cloned into the pET-28a vector (Novagen); hexa-histidine (C, cleaved yes); made in house; host or cells: E. coli BL21(DE3)
Description: To explore the 11β-HSD1 inhibitory activities of compounds 1–8 in vitro, recombinant human 11β-HSD1 protein was incubated with various concentrations of compounds and the enzymatic activity (cortisone to cortisol) was tested using HPLC-MS/MS (Fig. 3).
(§1) The gene encoding 11β-HSD1 (Genebank: NC_018912.2) was cloned into the pET-28a vector (Novagen). After the recombinant plasmids were verified by sequencing, the plasmid was transformed into E. coli BL21(DE3) (Invitrogen) which were grown in LB medium at 37 °C to an OD600 (0.8–1.0) and induced by 0.4 mM isopropyl -D-thiogalactopyranoside (IPTG) at 20 °C for 16 hours. Bacterial cells were lysed by ultrasonification on ice in a buffer containing 20 mM Tris, pH 8.5, 200 mM NaCl, 5 mM mercaptoethanol, 0.1% TritonX-100, and 5% glycerol. Soluble C-terminally hexa-histidine tagged 11β-HSD1 was bound to Ni-agarose affinity resin (Qiagen), washed with a buffer containing 20 mM Tris, pH 8.5, 200 mM NaCl, and 10 mM imidazole, and eluted with a buffer containing 20 mM Tris, pH 8.8, 250 mM NaCl, and 150 mM imidazole. Thrombin (Roche) was added at one unit per 4 mg protein to the elute, which was then dialyzed against 20 mM Tris pH 8.5 and 100 mM NaCl at room temperature for overnight digestion. After thrombin digestion to remove the hexahistidine tag, contaminant proteins were removed by loading the elute onto a second cobalt affinity column equilibrated in the dialyzing buffer and collecting the flow-through. The protein was further purified with anion exchange chromatography, using a linear gradient of 10 mM to 1 M NaCl concentration and size exclusion chromatography at 20 mM Tris pH 8.5 and 200 mM NaCl[22][23].
The inhibitory effects of 1–8 on 11β-HSD1 were measured using recombinant human 11β-HSD1 protein through HPLC-MS/MS method. Briefly, 2.5 μL recombinant 11β-HSD1 protein (0.512 mg protein/ml) was added to 100 μL buffer (100 mM KCl, 20 mM NaCl, 20 mM Hepes, pH 7.5) containing NADPH (1 mM) and cortisone (50 μM) with or without various concentrations of compounds. The reactants were incubated at 37 °C for 30 min. After extraction with dichloromethane, evaporation and resolvation with 200 μL methanol, cortisone and cortisol were measured by HPLC-MS/MS and multi-reactions monitoring (MRM) technology. Detection was performed using a Shimadzu LC-20AD HPLC system equipped with an SHIMADZU VP-ODS 150 L × 4.6 mm column connected to a API 4000 LC/MS/MS system. Samples were analyzed after injection and equilibrated with 45% solution A (0.1% formic acid in water) and 55% solution B (Methanol) under isocratic elution with the flow rate of 0.8 mL/min. The HPLC eluent were tested by HPLC-MS/MS using collision energy 33 eV (cortisol) and 30 eV […] in positive ion mode. Analyst quantitation optimization wizard was used to optimize the collision energies and other electric lens settings for MRM detections. The inhibition rates were calculated using the concentration ratios of cortisone and cortisol in tubes with or without various compounds.

[2] = molecular target: T1, recombinant human 11β-HSD1; assay: Binding affinity assay using microscale thermophoresis (MST); conditions: labelled 11β-HSD1 50 nM, 22 °C, means ± SD for three experiments; for Kd: read-out: Kd (dissociation constant with 11β-HSD1)
From the text: Measuring the thermophoretic behaviour of a protein in the presence of differing ligand concentrations by MST allows quantitative analysis of molecular interactions in solution. The MST technique has previously been used to investigate protein-protein, small organic molecule-protein and antibody-protein interactions.
as §1
The ability of the purified 11β-HSD1 to bind with potential ligands was analyzed using MST. The protein was labeled with the Monolith NT™ Protein Labeling Kit RED (Cat#L001) according to the supplied labeling protocol. Labelled 11β-HSD1 was kept constant at 50 nM, while all samples tested were diluted in a 20 mM HEPES (pH 7.5) and 0.05 (v/v)% Tween-20. Compounds were diluted in 12 dilution steps covering the range of appropriate concentrations. After 10 min incubation at room temperature, samples were loaded into Monolith^TM standard-treated capillaries and the thermophoresis was measured at 22 °C after 30 min incubation on a Monolith NT.115 instrument (NanoTemper Technologies, München, Germany). Laser power was set to 40% using 30 seconds on-time and the LED power was set to 100%. The dissociation constrant Kd values were fitted by using the NTAnalysis software (NanoTemper Technologies, München, Germany).

3T3-L1 preadipocytes = assay: Lipid accumulation in differentiation-induced 3T3-L1 preadipocytes (Oil Red O staining); assay type: cell-based; conditions: 3T3-L1 preadipocytes induced to differentiate, 50 μM compound, 6 days
Description: It was reported that 11β-HSD1 is highly expressed in normal liver[18] and stimulates pre-adipocyte differentiation. As a result, many 11β-HSD1 inhibitors were investigated to prevent adipogenesis. To further examine the 11β-HSD1 inhibitory effects of compound 3, we examined the anti-adipogenic effect of compound 3 during the differentiation of 3T3-L1 cells.
(§2) 3T3-L1 preadipocytes were purchased from Shanghai Institute of Cell Biology, Chinese Academy of Sciences. Both of them were cultured in DMEM medium (Gibco, USA) containing 10% FBS, penicillin (100 U/mL), streptomycin […] in 5% CO2 at 37 °C. 3T3-L1 preadipocytes were induced to differentiate as previously described. In short, differentiation was induced by adding 0.5 mmol/L 3-isobutyl-1-methyxanthine (Sigma), 10 μg/mL insulin (Sigma), and […] dexamethasone (Sigma) to the medium. After 48 h incubation (d2), the medium was replaced with DMEM containing 10 μg/mL insulin and 50 μM compound 3. On d4, the medium was replaced with DMEM containing compound 3, and then changed back to the same medium every on d6.
Preadipocytes 3T3-L1 were induced to differentiate with or without compounds 3 for 6 days, and then washed twice with PBS, fixed in 3.7% formaldehyde for 1 h and stained with Oil Red O for another 1 h at room temperature. Cells were then washed several times with PBS, and photographed by a light microscope (Olympus, Japan).

[3] = test system: 11β-HSD1 expression in 3T3-L1 cells; assay: 11β-HSD1 expression in 3T3-L1 cells (western blot); assay type: cell-based; conditions: differentiation-induced 3T3-L1 preadipocytes, β-Actin loading control
Description: Figure 5 Effects of compound 3 on lipid accumulation and 11β-HSD1 expression in 3T3-L1 cells. Preadipocytes were induced to differentiate in the presence or absence of compound 3, which was then stained with Oil Red O and photographed (40×). 11β-HSD1 expressions were determined by western blot. β-Actin was used as a loading control.
as §2
Cells were treated and then lysed in a radio immune-precipitation assay buffer. Protein concentrations were determined using a BCA protein assay kit (Byontime, Beijing, China) and equalized before loading. […]

T1 sequence (P28845 whole entry): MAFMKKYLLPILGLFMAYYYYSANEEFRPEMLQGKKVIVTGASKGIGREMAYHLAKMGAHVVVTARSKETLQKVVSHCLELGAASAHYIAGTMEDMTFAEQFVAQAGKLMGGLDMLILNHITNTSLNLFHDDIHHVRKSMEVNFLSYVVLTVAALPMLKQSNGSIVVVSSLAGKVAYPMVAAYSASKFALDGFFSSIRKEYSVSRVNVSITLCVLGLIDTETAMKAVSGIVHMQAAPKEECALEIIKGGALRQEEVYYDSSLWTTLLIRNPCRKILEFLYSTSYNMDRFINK

Compound | IC50 [1] [µM] | Kd [2] [µM] | lipid droplet accumulation (3T3-L1 preadipocytes) | 11β-HSD1 expression [3] | Kd (dissociation constant with 11β-HSD1) [2]
CN1C(=O)c2ccccc2NC(=O)C12OC2c1cccc(O)c1 (single isomer, unassigned; (+)) [Compound 5, (+)-cyclopenol] | 45.5 ± 7.82 | 421 ± 12.1 | – | – | –
CN1C(=O)c2ccccc2NC(=O)[C@@H](Cc2ccccc2)N(C)C(=O)c2ccccc2NC(=O)[C@H]1Cc1ccccc1 [Compound 3, Penicopeptide A] | 9.07 ± 0.61 | 82.1 ± 5.01 | decreased the lipid droplet accumulation | inhibition of 11β-HSD1 expression | –
CN1C(=O)c2ccccc2NC(=O)/C1=C/c1ccccc1 [Compound 4, 3-benzylidene-3,4-dihydro-4-methyl-lH-l,4-benzodiazepine-2,5-dione] | > 200 | – | – | – | either no binding or no statistically significant binding was detected and n.b.
CC(=O)c1cc(C)c2c(c1O)C[C@H](C)[C@@]1(C[C@@H](O)C[C@@H](C)O1)O2 [Compound 1, Penicophenone A] | > 200 | – | – | – | either no binding or no statistically significant binding was detected; also recorded: n.b.b
CN1C(=O)c2ccccc2NC(=O)C12OC2c1ccccc1 (centres unmarked) [Compound 6, cyclopenin] | – | 513 ± 10.6 | – | – | –
CC(C)=CCC[C@]1(C)[C@@H](O)CC[C@@]2(C)[C@H]1CC[C@H]1Cc3c([nH]c4ccccc34)[C@@]12C [Compound 7, emindole SB] | > 200 | – | – | – | either no binding or no statistically significant binding was detected and n.b.
CC(=O)c1cc(C)c(O)c(C[C@]23Cc4c(O)c(C(C)=O)cc(C)c4O[C@@]2(O)[C@@H](C)OC3=O)c1O [Compound 8, penilactones A] | > 200 | – | – | – | either no binding or no statistically significant binding was detected and n.b.
COc1cc(Cc2c(O)c(C)cc(C(C)=O)c2O)c(OC)cc1O [Compound 2, Penicophenone B] | > 200 | – | – | – | either no binding or no statistically significant binding was detected and n.b.
